Source: the supplement of paper PMC4862054
Where “and” joins values, the source holds several entries; their conditions need not be identical. Equal values may be shown once.

Tests used:
Details in all cases: incubation time: 72 h
[1] = tested on: DU-4475; test: normalised viability (% of control), CellTiter-Blue; higher = more viable cells (about 100 = DMSO control)
Method: (§1)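 DSRT, CellTiter-Blue viability, 72 h incubation. Signal is normalised to DMSO and benzethonium chloride controls. Value is the normalised response at dose 9.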

[2] = tested on: MDA-MB-453; test: as above
Method: as §1

[3] = tested on: HDQ-P1; test: as above
Method: as §1

[4] = tested on: CAL-148; test: as above
Method: as §1

[5] = tested on: CAL-51; test: as above
Method: as §1

[6] = tested on: CAL-85-1; test: as above
Method: as §1

[7] = tested on: MDA-MB-231; test: normalised viability (% of control), CellTiter-Blue; higher = more viable cells (100 = DMSO, 0 = benzethonium chloride kill control)
Method: (§2)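 DSRT, CellTiter-Blue viability, 72 h incubation. Signal is normalised to DMSO and benzethonium chloride controls. Value is the normalised response at dose 1.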

[8] = tested on: DU-4475; test: as above
Method: as §2

[9] = tested on: CAL-120; test: as above
Method: as §2

[10] = tested on: MDA-MB-453; test: as above
Method: as §2

[11] = tested on: HCC1143; test: as above
Method: as §2

[12] = tested on: MDA-MB-436; test: as above
Method: as §2

[13] = tested on: HDQ-P1; test: as above
Method: as §2

[14] = tested on: BT-474; test: as above
Method: as §2

[15] = tested on: MDA-MB-468; test: as above
Method: as §2

[16] = tested on: Hs578T; test: as above
Method: as §2

[17] = tested on: MFM-223; test: as above
Method: as §2

[18] = tested on: SK-BR-3; test: as above
Method: as §2

[19] = tested on: CAL-148; test: as above
Method: as §2

[20] = tested on: CAL-51; test: as above
Method: as §2

[21] = tested on: HCC1599; test: as above
Method: as §2

[22] = tested on: CAL-85-1; test: as above
Method: as §2

[23] = tested on: BT-549; test: as above
Method: as §2

[24] = tested on: HCC1937; test: as above
Method: as §2

[25] = tested on: MDA-MB-231; test: normalised response (% of control), CellTiter-Glo; higher = more viable cells (100 = DMSO, 0 = benzethonium chloride kill control)
Summary of the method: (§3)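 Each value is the plate-normalised signal at one concentration of the series. Breast cancer cell lines (20 µl suspension) were incubated 72 h in 384-well plates with compound at 5 concentrations in 10-fold steps over a compound-specific 10,000-fold range. CellTox Green and then CellTiter-Glo were read, and each plate was scaled to 0.1 % DMSO (100) and a positive kill control (0).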

[26] = tested on: DU-4475; test: as above
Summary of the method: as §3

[27] = tested on: CAL-120; test: as above
Summary of the method: as §3

[28] = tested on: MDA-MB-453; test: as above
Summary of the method: as §3

[29] = tested on: HCC1143; test: as above
Summary of the method: as §3

[30] = tested on: MDA-MB-436; test: as above
Summary of the method: as §3

[31] = tested on: HDQ-P1; test: as above
Summary of the method: as §3

[32] = tested on: MCF-10A; test: as above
Summary of the method: as §3

[33] = tested on: BT-474; test: as above
Summary of the method: as §3

[34] = tested on: MDA-MB-468; test: as above
Summary of the method: as §3

[35] = tested on: Hs578T; test: as above
Summary of the method: as §3

[36] = tested on: MFM-223; test: as above
Summary of the method: as §3

[37] = tested on: SK-BR-3; test: as above
Summary of the method: as §3

[38] = tested on: CAL-148; test: as above
Summary of the method: as §3

[39] = tested on: CAL-51; test: as above
Summary of the method: as §3

[40] = tested on: HCC1599; test: as above
Summary of the method: as §3

[41] = tested on: CAL-85-1; test: as above
Summary of the method: as §3

[42] = tested on: BT-549; test: as above
Summary of the method: as §3

[43] = tested on: HCC1937; test: as above
Summary of the method: as §3

S=P(N1CC1)(N1CC1)N1CC1 [Thio-TEPA] (100000 nM)
normalised viability [1]: 102% | normalised viability [2]: 104% | normalised viability [3]: 91.3% | normalised viability [4]: 111% | normalised viability [5]: 99.7% | normalised viability [6]: 101%

Nc1cc(C(F)(F)F)c(-c2cc(N3CCOCC3)nc(N3CCOCC3)n2)cn1 [BKM-120] (1 nM)
normalised viability [7]: 110% | normalised viability [8]: 114% | normalised viability [9]: 85.6% | normalised viability [10]: 103% | normalised viability [11]: 88.4% | normalised viability [12]: 104% | normalised viability [13]: 99% | normalised viability [14]: 116% | normalised viability [15]: 96.6% | normalised viability [16]: 121% | normalised viability [17]: 93% | normalised viability [18]: 99.7% | normalised viability [19]: 105% | normalised viability [20]: 98% | normalised viability [21]: 82.8% | normalised viability [22]: 89.5% | normalised viability [23]: 97.8% | normalised viability [24]: 95.9%

Cc1cc(Nc2cc(CN3CCOCC3)c3nc(C)c(Cc4ccc(Cl)cc4F)n3n2)n[nH]1 (1 nM)
normalised viability [7]: 89.5% | normalised viability [8]: 119% | normalised viability [9]: 86.9% | normalised viability [10]: 85.3% | normalised viability [11]: 88.6% | normalised viability [12]: 87.7% | normalised viability [13]: 65.2% | normalised viability [14]: 92.4% | normalised viability [15]: 103% | normalised viability [16]: 107% | normalised viability [17]: 93.8% | normalised viability [18]: 104% | normalised viability [19]: 95.6% | normalised viability [20]: 98% | normalised viability [21]: 110% | normalised viability [22]: 82.1% | normalised viability [23]: 97.8% | normalised viability [24]: 85.9%

S=P(N1CC1)(N1CC1)N1CC1 [Thio-TEPA] (10 nM)
normalised viability [7]: 94.8% | normalised viability [8]: 88.7% | normalised viability [9]: 86.2% | normalised viability [10]: 104% | normalised viability [11]: 97.9% | normalised viability [12]: 99.2% | normalised viability [13]: 109% | normalised viability [14]: 100% | normalised viability [15]: 107% | normalised viability [16]: 106% | normalised viability [17]: 101% | normalised viability [18]: 92.1% | normalised viability [19]: 102% | normalised viability [20]: 94% | normalised viability [21]: 95.7% | normalised viability [22]: 92.8% | normalised viability [23]: 106% | normalised viability [24]: 90%

Nc1cc(C(F)(F)F)c(-c2cc(N3CCOCC3)nc(N3CCOCC3)n2)cn1 [BKM-120] (10000 nM)
normalised viability [1]: 12.7% | normalised viability [2]: 6.1% | normalised viability [3]: 12.4% | normalised viability [4]: 6.46% | normalised viability [5]: 4.15% | normalised viability [6]: 20.1%

CCc1c2c(nc3ccc(OC(=O)N4CCC(N5CCCCC5)CC4)cc13)-c1cc3c(c(=O)n1C2)COC(=O)[C@]3(O)CC [Irinotecan] (1 nM)
normalised response [25]: 90.3% | normalised response [26]: 104% | normalised response [27]: 94.2% | normalised response [28]: 114% | normalised response [29]: 93.9% | normalised response [30]: 97.9% | normalised response [31]: 97.3% | normalised response [32]: 96.5% | normalised response [33]: 98.5% | normalised response [34]: 107% | normalised response [35]: 95.9% | normalised response [36]: 94% | normalised response [37]: 110% | normalised response [38]: 98.3% | normalised response [39]: 81.6% | normalised response [40]: 105% | normalised response [41]: 116% | normalised response [42]: 109% | normalised response [43]: 97.2% | normalised viability [7]: 82.3% and 98.2% | normalised viability [8]: 98.7% and 106% | normalised viability [11]: 87.2% and 101% | normalised viability [12]: 97.6% and 117% | normalised viability [13]: 89% and 101% | normalised viability [14]: 103% and 98% | normalised viability [15]: 96.8% and 102% | normalised viability [17]: 93.6% and 104% | normalised viability [18]: 84.7% and 99.9% | normalised viability [19]: 91.5% and 110% | normalised viability [20]: 106% and 112% | normalised viability [22]: 83% and 98.7% | normalised viability [23]: 95.7% and 90.7%
